# According to patent US12605397B2, “Deoxy-cytidine or uridine derivatives for use in cancer therapies” (HEMISPHERIAN AS, priority 2019, dated 2026):
# Legend:
# G30 cells = test: Survival assay (MTT), G30; type: cell-based, human; conditions: Homo sapiens, G30, Glioma, Grade IV, 72 hours
# Experimental: (§1) Cells were passed between 70 and 90% confluence.
# (§2) Cells were incubated with the drugs for 72 hours.
# HeLa cells = test: Survival assay (MTT), HeLa; conditions: for IC50: Homo sapiens, HeLa; for cytotoxicity to HeLa cells (cell survival): three days of treatment, MTT, up to 100 μM
# Experimental: Cell lines not mentioned above were grown in DMEM (Sigma, Cat.Nr. D6429) supplemented with 10% Fetal Bovine Serum and 100 U/ml penicillin 100 U/ml streptomycin. All cells were maintained in a 5% CO2, humidified, water-jacketed incubator at 37° C. Cells were passed between 70 and 90% confluence.
# In a 96-well plate, 4000 cells in 100 μl of corresponding medium were seeded. The following day, drugs, diluted in DMSO, were added in 8 concentrations in triplicate. Drugs were added as a 4-fold dilution series starting from 100 μM. Cells were incubated with the drugs for 72 hours. Cell proliferation was assessed by MTT assay according to the manufacturer's protocol (ATCC, Cat. Nr. 30-1010K). Cell survival was normalized to the survival of cells treated with DMSO only. Experiment was performed three times, data represent mean of nine wells±SEM.
# HeLa cells, grown as described above (Materials and Methods), were treated with 5-hydroxymethyl-2′-deoxycytidine and 5-formyl-2′-deoxycytidine. After three days of treatment with these compounds, cell survival was assessed as described above (Materials and Methods).
# After three days of treatment with these compounds at a concentration of 100, 25, 6.25, 1.56, 0.39, 0.1, 0.02, or 0.006 μM, cell survival was assessed by MTT assay as described above (Materials and Methods).
# [1] = system: SF-188 grade IV glioma cells; test: Apoptosis flow cytometry (Annexin V / 7AAD); type: cell-based, human; conditions: SF-188 cells, 100 μM, 72 hours
# Experimental: 100,000 cells were seeded in a 6-well plate and incubated with 100 μM of Temozolomide, 2′-Deoxy-5-hydroxymethylcytidine, 5-Formyl-2′-deoxycytidine or DMSO for 72 hours. Detection of apoptotic cells was assessed using Annexin V-7-amino-actinomycin D (7-AAD) Apoptotic Detection Kit (Nordic Biosite AS, Cat. Nr. 640922) according to manufacturer's protocol.
# Fluorescence-activated cell sorting analysis was performed on LSR Fortessa (BD Biosciences) and data were analyzed on FlowJo software. All experiments were performed in triplicates.
# It was therefore evaluated whether 5-formyl-2′deoxycytidine and 5-hydroxymethyl-2′-deoxycytidine were killing sensitive cells or causing them to be delayed in the cell cycle. SF-188 grade IV glioma cells were treated either with DMSO, temozolomide, 5-formyl-2′-deoxycytidine, or 5-hydroxymethyl-2′-deoxycytidine at the indicated concentration. […] A majority of SF-188 cells treated with 5-formyl-2′-deoxycytidine or 5-hydroxymethyl-2′-deoxycytidine were dead according to the flow cytometry profile (FIG. 2A).
# HL-60 cells = test: Survival assay (MTT), HL-60; type: cell-based, human; conditions: Homo sapiens
# Experimental: as §1, §2
# SK-OV-3 cells = test: Survival assay (MTT), SK-OV-3; type: cell-based, human; conditions: Homo sapiens
# Experimental: as §1, §2
# G166 cells = test: Survival assay (MTT), G166; type: cell-based, human; conditions: Homo sapiens, G166, Glioma, Grade IV, 72 hours
# Experimental: (§3) Primary glioma neural stem (GNS) cells (G7, G14, G144, G166) were cultured on poly-D-lysine (Merck Millipore, Cat. Nr. A-003-E) and laminin (R&D Systems, Cat.Nr. 3446-005-01) coated plates in neural stem cell medium (50% DMEM-F12 (Thermofisher, Cat. Nr. 21041025), 50% neurobasal medium (Thermofisher, Cat. Nr. 10888-022), N2 (Life Technologies, Cat. Nr. A-003-E) and B27 supplements (Life Technologies, Cat.Nr. 12587010), 1 mM sodium pyruvate (Life Technologies, Cat.Nr. 11360-039), 2 mM glutamax (Life Technologies, Cat. Nr. 35050038), 1 mM HEPES (Fisher Scientific, Cat. Nr. BP299-1), 0.1 mM β-mercaptoethanol (Life Technologies, Cat. Nr. 31350010), 1× nonessential amino acids (Life Technologies, Cat. Nr. 11140-035), 0.006% bovine serum albumin (Sigma, Cat. Nr. A8577-10ML), 4 μg/ml heparin (Sigma, Cat. Nr. H3149-25KU), 100 U/ml penicillin, 100 μg/ml streptomycin, 20 ng/ml hEGF (R&D Systems, Cat. Nr. 236-EG-200), 10 ng/ml bFGF (Peprotech, Cat. Nr. 100-18B).
# as §2
# HaCat cells = test: Survival assay (MTT), HaCat; type: cell-based, human; conditions: Homo sapiens, Normal, Keratinocytes, 72 hours
# Experimental: as §1, §2
# (§4) The present inventors further investigated the extent to which these compounds kill normal human cells; low cytotoxicity against normal human cells is advantageous property for anti-cancer agents. The cytotoxicity of these compounds in various normal human cell lines was therefore investigated (Table 3). Cells were grown and the survival assay was performed as described above (Materials and Methods).
# U2OS cells = test: Survival assay (MTT), U2OS; type: cell-based, human; conditions: Homo sapiens
# Experimental: as §1, §2
# U3017 cells = test: Survival assay (MTT), U3017; type: cell-based, human; conditions: Homo sapiens, U3017, Glioma, Grade IV, 72 hours
# Experimental: as §1, §2
# CB152 cells = test: Survival assay (MTT), CB152; type: cell-based, human; conditions: Homo sapiens, CB152, Glioma, Grade IV, 72 hours
# Experimental: as §1, §2
# SF188 cells = test: Survival assay (MTT), SF188; type: cell-based, human; conditions: Homo sapiens, SF-188, SF188, Glioma, Grade IV, 72 hours
# Experimental: as §1, §2
# U3013 cells = test: Survival assay (MTT), U3013; type: cell-based, human; conditions: Homo sapiens, U3013, Glioma, Grade IV, 72 hours
# Experimental: as §1, §2
# HEK293FT cells = test: Survival assay (MTT), HEK293FT; type: cell-based; conditions: Homo sapiens
# Experimental: as §1, §2, §4
# MCF-7 cells = test: Survival assay (MTT), MCF-7; type: cell-based, human; conditions: Homo sapiens, MCF7
# Experimental: as §1, §2
# MRC5 cells = test: Survival assay (MTT), MRC5; type: cell-based, human; conditions: Homo sapiens
# Experimental: as §1, §2, §4
# DIPG007 cells = test: Survival assay (MTT), DIPG007; type: cell-based, human; conditions: Homo sapiens, DIPG007, Glioma, Grade IV, 72 hours
# Experimental: as §1, §2
# [2] = system: Glioma, Grade IV cell lines; test: Survival assay, panel of 12 patient derived Glioma, Grade IV cell lines; type: cell-based, human; conditions: of 12 cell lines of Table 2
# Experimental: as §3, §1, §2
# Due to lack of activity in previous assays, 5-carboxyl-2′-deoxycytidine was not included in this more rigorous analysis.
# 22Rv1 cells = test: Survival assay (MTT), 22Rv1; type: cell-based, human; conditions: Homo sapiens
# Experimental: as §1, §2
# MIA PaCa-2 cells = test: Survival assay (MTT), MIA PaCa-2; type: cell-based, human; conditions: Homo sapiens, MIA PaCa-2
# Experimental: as §1, §2
# G14 cells = test: Survival assay (MTT), G14; type: cell-based, human; conditions: Homo sapiens, G14, Glioma, Grade IV, 72 hours
# Experimental: as §3, §2
# HCT-116 cells = test: Survival assay (MTT), HCT-116; type: cell-based, human; conditions: Homo sapiens
# Experimental: as §2
# [3] = HL-60, Acute Promyelocytic Leukemia, 72 hours, MTT
# [4] = HL-60, Tables 6 and 7, unit inferred
# [5] = SK-OV-3, Ovarian Adenocarcinoma, 72 hours, MTT
# [6] = SK-OV-3, Tables 6 and 7, unit inferred
# [7] = Bone Osteoscarcoma, 72 hours, MTT
# [8] = HEK293, Tables 6 and 7, unit inferred
# [9] = MCF-7, Epithelial Adenocarcinoma (Breast), 72 hours, MTT
# [10] = MCF-7, Tables 6 and 7, unit inferred
# [11] = MRC5, 72 h, MRC5, Normal, Lung, 72 hours, MTT
# [12] = MRC5, MRC5, Tables 6 and 7, unit inferred
# [13] = 22Rv1, 22Rv1, Tables 6 and 7, unit inferred
# [14] = 22Rv1, 72 h, 22Rv1, Prostate Carcinoma, 72 hours, MTT
# [15] = MIA PaCa-, Pancreatic Carcinoma, 72 hours, MTT
# [16] = HCT-116, 72 h, HCT-116, Colon Carcinoma, 72 hours, MTT
# [17] = HCT-116, HCT-116, Tables 6 and 7, unit inferred
structure (smiles),measurement,setting,value
"Nc1nc(=O)n([C@H]2C[C@H](O)[C@@H](CO)O2)cc1CO [2d5hmC, 5-hydroxymethyl-2′-deoxycytidine]",IC50,G30 cells,28.1 µM
same,IC50,HeLa cells,≥ 25 µM
same,IC50,HeLa cells; 72 h,> 25 µM
same,cytotoxicity to HeLa cells (cell survival),HeLa cells,did not differ from DMSO treated cells
same,"dead cells by flow cytometry (Annexin V, 7AAD)",[1],dead and not arrested at a cell cycle checkpoint
same,IC50,HL-60 cells; [3],> 25 µM
same,IC50,HL-60 cells; [4],≥ 25 µM
same,IC50,SK-OV-3 cells; [5],> 25 µM
same,IC50,SK-OV-3 cells; [6],≥ 25 µM
same,IC50,G166 cells,> 100 µM
same,IC50,HaCat cells,> 25 µM
same,IC50,U2OS cells; [7],> 25 µM
same,IC50,"U2OS cells; Tables 6 and 7, unit inferred",≥ 25 µM
same,IC50,U3017 cells,14.1 µM
same,IC50,CB152 cells,> 100 µM
same,IC50,SF188 cells,8.97 µM
same,IC50,U3013 cells,> 100 µM
same,IC50,"HEK293FT cells; 72 h, Normal, Kidney, MTT",> 25 µM
same,IC50,HEK293FT cells; [8],≥ 25 µM
same,IC50,MCF-7 cells; [9],> 25 µM
same,IC50,MCF-7 cells; [10],≥ 25 µM
same,IC50,MRC5 cells; [11],> 25 µM
same,IC50,MRC5 cells; [12],≥ 25 µM
same,IC50,DIPG007 cells,> 100 µM
same,"number of Glioma, Grade IV cell lines killed",[2],6 of 12
same,IC50,22Rv1 cells; [13],≥ 25 µM
same,IC50,22Rv1 cells; [14],> 25 µM
same,IC50,MIA PaCa-2 cells; [15],> 25 µM
same,IC50,"MIA PaCa-2 cells; Tables 6 and 7, unit inferred",≥ 25 µM
same,IC50,G14 cells,25.4 µM
same,IC50,HCT-116 cells; [16],> 25 µM
same,IC50,HCT-116 cells; [17],≥ 25 µM
"Nc1nc(=O)n([C@H]2C[C@H](O)[C@@H](CO)O2)cc1C=O [2d5fC, 5-formyl-2′-deoxycytidine]",IC50,G30 cells,18 µM
same,IC50,HeLa cells,0.76 µM
same,IC50,HeLa cells; 72 h,0.76 µM
same,cytotoxicity to HeLa cells (cell survival),HeLa cells,markedly greater cytotoxic effect
same,"dead cells by flow cytometry (Annexin V, 7AAD)",[1],dead and not arrested at a cell cycle checkpoint
same,IC50,HL-60 cells; [3],6.26 µM
same,IC50,HL-60 cells; [4],6.26 µM
same,IC50,SK-OV-3 cells; [5],9.69 µM
same,IC50,SK-OV-3 cells; [6],9.69 µM
same,IC50,G166 cells,> 100 µM
same,IC50,HaCat cells,0.102 µM
same,IC50,U2OS cells; [7],8.69 µM
same,IC50,"U2OS cells; Tables 6 and 7, unit inferred",8.69 µM
same,IC50,U3017 cells,> 100 µM
same,IC50,CB152 cells,> 100 µM
same,IC50,SF188 cells,28.2 µM
same,IC50,U3013 cells,> 100 µM
same,IC50,"HEK293FT cells; 72 h, Normal, Kidney, MTT",> 25 µM
same,IC50,HEK293FT cells; [8],≥ 25 µM
same,IC50,MCF-7 cells; [9],0.866 µM
same,IC50,MCF-7 cells; [10],0.866 µM
same,IC50,MRC5 cells; [11],> 25 µM
same,IC50,MRC5 cells; [12],≥ 25 µM
same,IC50,DIPG007 cells,> 100 µM
same,"number of Glioma, Grade IV cell lines killed",[2],5 of 12
same,IC50,22Rv1 cells; [13],≥ 25 µM
same,IC50,22Rv1 cells; [14],> 25 µM
same,IC50,MIA PaCa-2 cells; [15],1.14 µM
same,IC50,"MIA PaCa-2 cells; Tables 6 and 7, unit inferred",1.14 µM
same,IC50,G14 cells,> 100 µM
same,IC50,HCT-116 cells; [16],> 25 µM
same,IC50,HCT-116 cells; [17],≥ 25 µM
"Cn1nnc2c(C(N)=O)ncn2c1=O [Temozolomide, 4-methyl-5-oxo-2,3,4,6,8-pentazabicyclo[4.3.0]nona-2,7,9-triene-9-carboxamide, reference compound]",IC50,G30 cells,21.6 µM
same,IC50,HeLa cells; 72 h,> 25 µM
same,"dead cells by flow cytometry (Annexin V, 7AAD)",[1],slight increase in the amount of dead cells
same,IC50,HL-60 cells; [3],> 25 µM
same,IC50,SK-OV-3 cells; [5],> 25 µM
same,IC50,G166 cells,> 100 µM
same,IC50,HaCat cells,> 25 µM
same,IC50,U2OS cells; [7],> 25 µM
same,IC50,U3017 cells,> 100 µM
same,IC50,CB152 cells,> 100 µM
same,IC50,SF188 cells,> 100 µM
same,IC50,U3013 cells,> 100 µM
same,IC50,"HEK293FT cells; 72 h, Normal, Kidney, MTT",> 25 µM
same,IC50,MCF-7 cells; [9],> 25 µM
same,IC50,MRC5 cells; [11],> 25 µM
same,IC50,DIPG007 cells,> 100 µM
same,"number of Glioma, Grade IV cell lines killed",[2],5 of 12
same,IC50,22Rv1 cells; [14],> 25 µM
same,IC50,MIA PaCa-2 cells; [15],> 25 µM
same,IC50,G14 cells,6.02 µM
same,IC50,HCT-116 cells; [16],> 25 µM
